# Data published in patent US9796741B2 (Achillion Pharmaceuticals, Inc., priority 2014, dated 2017).
# Molecular target: Human factor D (Homo sapiens (Human), UniProt P00746)
# Assay: Human Factor D Assay
# Format: biochemical
# Conditions: human factor D 80 nM, substrate Z-L-Lys-SBzl, DTNB
# Method: Human factor D (purified from human serum, Complement Technology, Inc.) at 80 nM final concentration is incubated with test compound at various concentrations for 5 minutes at room temperature in 50 mM Tris, 1M NaCl, pH 7.5. A synthetic substrate Z-L-Lys-SBzl and DTNB (Ellman's reagent) are added to final concentrations of 100 μM each. The increase in color is recorded at OD405 nm in a microplate in kinetic mode over 30 minutes with 30 second time points in a spectrofluorimeter. IC50 values are calculated by non-linear regression from the percentage of inhibition of complement factor D activity as a function of test compound concentration.
# Human factor D, sequence (P00746 26-253): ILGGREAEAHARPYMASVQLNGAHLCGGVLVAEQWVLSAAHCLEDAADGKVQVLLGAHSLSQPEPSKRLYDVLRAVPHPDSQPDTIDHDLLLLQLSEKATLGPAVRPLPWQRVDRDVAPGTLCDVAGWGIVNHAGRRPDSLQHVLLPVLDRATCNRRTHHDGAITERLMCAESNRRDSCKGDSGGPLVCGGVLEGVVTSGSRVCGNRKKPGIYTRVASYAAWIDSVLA
row,Structure (SMILES),IC50
1,"NC(=O)c1nn(CC(=O)N2C[C@H](F)C[C@H]2C(=O)Nc2nc(-c3cccc(Cl)c3)ns2)c2ccc(-c3ccnnc3)cc12 [Compound 146, 1-(2-((2S,4R)-2-(3-(3-chlorophenyl)-1,2,4-thiadiazol-5-ylcarbamoyl)-4-fluoropyrrolidin-l-yl)-2-oxoethyl)-5-(pyridazin-4-yl)-1H-indazole-3-carboxamide]",> 10 µM
2,"NC(=O)c1nn(CC(=O)N2C[C@H](F)C[C@H]2C(=O)Nc2cccc(-c3ccccc3Cl)c2F)c2cnc(-c3cncnc3)cc12 [Compound 19, 1-(2-((2S,4R)-2-(2′-chloro-2-fluorobiphenyl-3-ylcarbamoyl)-4-fluoropyrrolidin-1-yl)-2-oxoethyl)-5-(pyrimidin-5-yl)-1H-pyrazolo[3,4-c]pyridine-3-carboxamide]",< 1 µM
3,"CC(=O)c1cn(CC(=O)N2C[C@H](F)C[C@H]2C(=O)N[C@H]2CCCC[C@@H]2OCc2ccccc2)c2ccc(-c3ccnnc3)cc12 [Compound 74, (2S,4R)-1-(2-(3-acetyl-5-(pyridazin-4-yl)-1H-indol-1-yl)acetyl)-N-((1S,2S)-2-(benzyloxy)cyclohexyl)-4-fluoropyrrolidine-2-carboxamide]",> 10 µM
4,"NC(=O)c1nn(CC(=O)N2C[C@H](F)C[C@H]2C(=O)Nc2cccc3c2CN(c2ccccn2)C3)c2ccc(-c3ccnnc3)cc12 [Compound 104, 1-(2-((2S,4R)-4-fluoro-2-(2-(pyridin-2-yl)isoindolin-4-ylcarbamoyl)pyrrolidin-1-yl)-2-oxoethyl)-5-(pyridazin-4-yl)-1H-indazole-3-carboxamide]",> 10 µM
5,"Cc1ncc(-c2ccc3c(c2)c(C(N)=O)nn3CC(=O)N2C[C@H](F)C[C@H]2C(=O)Nc2cccc(-c3ccccc3Cl)c2F)cn1 [Compound 103, 1-(2-((2S,4R)-2-(2′-chloro-2-fluorobiphenyl-3-ylcarbamoyl)-4-fluoropyrrolidin-1-yl)-2-oxoethyl)-5-(2-methylpyrimidin-5-yl)-1H-indazole-3-carboxamide]",< 1 µM
6,"Cc1cc(NC(=O)[C@@H]2C[C@@H](F)CN2C(=O)Cn2nc(C(N)=O)c3cc(-c4ccnnc4)ccc32)n2nc(C(F)(F)F)nc2n1 [Compound 113, 1-(2-((2S,4R)-4-fluoro-2-(5-methyl-2-(trifluoromethyl)-[1,2,4]triazolo[1,5-a]pyrimidin-7-ylcarbamoyl)pyrrolidin-1-yl)-2-oxoethyl)-5-(pyridazin-4-yl)-1H-indazole-3-carboxamide]",> 10 µM
7,"CC(=O)c1cn(CC(=O)N2C[C@H](F)C[C@H]2C(=O)NC2CCCc3nc(-c4ccc(F)cc4)sc32)c2ccc(-c3ccnnc3)cc12 (stereo partly drawn) [Compound 106, (2S,4R)-1-(2-(3-acetyl-5-(pyridazin-4-yl)-1H-indol-1-yl)acetyl)-4-fluoro-N-(2-(4-fluorophenyl)-4,5,6,7-tetrahydrobenzo[d]thiazol-7-yl) pyrrolidine-2-carboxamide]",> 10 µM
8,"CC(=O)c1cn(CC(=O)N2C[C@H](F)C[C@H]2C(=O)Nc2ccccc2-n2nccc2C)c2ccc(-c3ccnnc3)cc12 [Compound 72, (2S,4R)-1-(2-(3-acetyl-5-(pyridazin-4-yl)-1H-indol-1-yl)acetyl)-4-fluoro-N-(2-(5-methyl-1H-pyrazol-1-yl)phenyl)pyrrolidine-2-carboxamide]",> 10 µM
9,"CC(=O)c1cn(CC(=O)N2C[C@H](F)C[C@H]2C(=O)Nc2cccc(-c3cc(F)c(F)cc3Cl)c2F)c2ccc(-c3cnc(C)nc3)cc12 [Compound 150, (2S,4R)-1-(2-(3-acetyl-5-(2-methylpyrimidin-5-yl)-1H-indol-1-yl)acetyl)-N-(2′-chloro-2,4′,5′-trifluorobiphenyl-3-yl)-4-fluoropyrrolidine-2-carboxamide]",< 1 µM
10,"NC(=O)c1nn(CC(=O)N2C[C@H](F)C[C@H]2C(=O)Nc2cccc(Cl)c2-n2cncn2)c2ccc(-c3ccnnc3)cc12 [Compound 96, 1-(2-((2S,4R)-2-(3-chloro-2-(1H-1,2,4-triazol-1-yl)phenylcarbamoyl)-4-fluoropyrrolidin-1-yl)-2-oxoethyl)-5-(pyridazin-4-yl)-1H-indazole-3-carboxamide]",> 10 µM
11,"NC(=O)c1nn(CC(=O)N2C[C@H](F)C[C@H]2C(=O)Nc2nc(-c3ccc4c(c3)CCCC4)cs2)c2ccc(-c3ccnnc3)cc12 [Compound 55, 1-(2-((2S,4R)-4-fluoro-2-(4-(5,6,7,8-tetrahydronaphthalen-2-yl)thiazol-2-ylcarbamoyl)pyrrolidin-1-yl)-2-oxoethyl)-5-(pyridazin-4-yl)-1H-indazole-3-carboxamide]",> 10 µM
12,"CC(=O)c1cn(CC(=O)N2C[C@H](F)C[C@H]2C(=O)Nc2c[nH]nc2-c2ccc(Cl)cc2Cl)c2ccc(-c3ccnnc3)cc12 [Compound 156, (2S,4R)-1-(2-(3-acetyl-5-(pyridazin-4-yl)-1H-indol-1-yl)acetyl)-N-(3-(2,4-dichlorophenyl)-1H-pyrazol-4-yl)-4-fluoropyrrolidine-2-carboxamide]",> 10 µM
13,"CC(=O)c1cn(CC(=O)N2C[C@H](F)C[C@H]2C(=O)Nc2nnc(-c3ccc(Cl)c(Cl)c3)s2)c2ccc(-c3ccnnc3)cc12 [Compound 117, (2S,4R)-1-(2-(3-acetyl-5-(pyridazin-4-yl)-1H-indol-1-yl)acetyl)-N-(5-(3,4-dichlorophenyl)-1,3,4-thiadiazol-2-yl)-4-fluoropyrrolidine-2-carboxamide]",> 10 µM
14,"CC(=O)c1cn(CC(=O)N2C[C@H](F)C[C@H]2C(=O)Nc2cccc(-c3ccccc3Cl)c2F)c2ccc(N3CCN(S(C)(=O)=O)CC3)cc12 [Compound 33, (2S,4R)-1-(2-(3-acetyl-5-(4-(methylsulfonyl)piperazin-1-yl)-1H-indol-1-yl)acetyl)-N-(2′-chloro-2-fluorobiphenyl-3-yl)-4-fluoropyrrolidine-2-carboxamide]",< 1 µM
15,"COc1ncc(-c2ccc3c(c2)c(C(C)=O)cn3CC(=O)N2C[C@H](F)C[C@H]2C(=O)Nc2cccc(Br)n2)cn1 [Compound 21, (2S,4R)-1-(2-(3-acetyl-5-(2-methoxypyrimidin-5-yl)-1H-indol-1-yl)acetyl)-N-(6-bromopyridin-2-yl)-4-fluoropyrrolidine-2-carboxamide]",< 1 µM
16,"CC(=O)c1cn(CC(=O)N2[C@@H]3C[C@@H]3C[C@H]2C(=O)NCc2cccc(Cl)c2F)c2ccc(-c3cnc(C)nc3)cc12 [Compound 134, (1R,3S,5R)-2-(2-(3-acetyl-5-(2-methylpyrimidin-5-yl)-1H-indol-1-yl)acetyl)-N-(3-chloro-2-fluorobenzyl)-2-azabicyclo[3.1.0] hexane-3-carboxamide]",< 1 µM
17,"CC(=O)c1cn(CC(=O)N2C[C@H](F)C[C@H]2C(=O)Nc2cccc(Br)n2)c2ccc(-c3cnc(C)nc3)cc12 [Compound 84, (2S,4R)-1-(2-(3-acetyl-5-(2-methylpyrimidin-5-yl)-1H-indol-1-yl)acetyl)-N-(6-bromopyridin-2-yl)-4-fluoropyrrolidine-2-carboxamide]",< 1 µM
18,"CC1Oc2cccc(NC(=O)[C@@H]3C[C@@H](F)CN3C(=O)Cn3nc(C(N)=O)c4cc(-c5ccnnc5)ccc43)c2NC1=O (stereo partly drawn) [Compound 152, 1-(2-((2S,4R)-4-fluoro-2-(2-methyl-3-oxo-3,4-dihydro-2H-benzo[b][1,4]oxazin-5-ylcarbamoyl)pyrrolidin-1-yl)-2-oxoethyl)-5-(pyridazin-4-yl)-1H-indazole-3-carboxamide]",> 10 µM
19,"CC(=O)c1cn(CC(=O)N2C[C@H](F)C[C@H]2C(=O)Nc2cncc(Cl)c2)c2ccc(-c3ccnnc3)cc12 [Compound 66, (2S,4R)-1-(2-(3-acetyl-5-(pyridazin-4-yl)-1H-indol-1-yl)acetyl)-N-(5-chloropyridin-3-yl)-4-fluoropyrrolidine-2-carboxamide]",< 1 µM
20,"COc1cc(C)cc2c1OCCC2NC(=O)[C@@H]1C[C@@H](F)CN1C(=O)Cn1cc(C(C)=O)c2cc(-c3ccnnc3)ccc21 (stereo partly drawn) [Compound 123, (2S,4R)-1-(2-(3-acetyl-5-(pyridazin-4-yl)-1H-indol-1-yl)acetyl)-4-fluoro-N-(8-methoxy-6-methylchroman-4-yl)pyrrolidine-2-carboxamide]",> 10 µM
21,"COc1cc(C)cc2c1OCCC2NC(=O)[C@@H]1C[C@@H](F)CN1C(=O)Cn1nc(C(N)=O)c2cc(-c3ccnnc3)ccc21 (stereo partly drawn) [Compound 122, 1-(2-((2S,4R)-4-fluoro-2-(8-methoxy-6-methylchroman-4-ylcarbamoyl)pyrrolidin-1-yl)-2-oxoethyl)-5-(pyridazin-4-yl)-1H-indazole-3-carboxamide]",> 10 µM
22,"CC(=O)c1cn(CC(=O)N2C[C@H](F)C[C@H]2C(=O)Nc2cccc(Br)n2)c2ccc(-c3ccccc3Cl)cc12 [Compound 100, (2S,4R)-1-(2-(3-acetyl-5-(2-chlorophenyl)-1H-indol-1-yl)acetyl)-N-(6-bromopyridin-2-yl)-4-fluoropyrrolidine-2-carboxamide]",< 1 µM
23,NC(=O)c1nn(CC(=O)N2C[C@H](F)C[C@H]2C(=O)Nc2cccc(-c3ccccc3Cl)c2F)c2ccc(-c3cn[nH]c3)cc12 [Compound 1],< 1 µM
24,"CCN1Cc2ccc(NC(=O)[C@@H]3C[C@@H](F)CN3C(=O)Cn3nc(C(N)=O)c4cc(-c5ccnnc5)ccc43)cc2C1=O [Compound 48, 1-(2-((2S,4R)-2-(2-ethyl-3-oxoisoindolin-5-ylcarbamoyl)-4-fluoropyrrolidin-1-yl)-2-oxoethyl)-5-(pyridazin-4-yl)-1H-indazole-3-carboxamide]",> 10 µM
25,NC(=O)c1nn(CC(=O)N2C[C@H](F)C[C@H]2C(=O)Nc2cccc(-c3ccccc3Cl)c2F)c2ccc(-c3cncnc3)cc12 [Compound 2],< 1 µM
26,"NC(=O)c1nn(CC(=O)N2C[C@H](F)C[C@H]2C(=O)Nc2ccc(F)c(-c3nnc4n3CCCCC4)c2)c2ccc(-c3ccnnc3)cc12 [Compound 91, 1-(2-((2S,4R)-4-fluoro-2-(4-fluoro-3-(6,7,8,9-tetrahydro-5H-[1,2,4]triazolo[4,3-a]azepin-3-yl)phenylcarbamoyl)pyrrolidin-1-yl)-2-oxoethyl)-5-(pyridazin-4-yl)-1H-indazole-3-carboxamide]",> 10 µM
